The values that follow come from patent US8501713B2, “Drug combinations for the treatment of duchenne muscular dystrophy” (Summit Corporation PLC, priority 2007, dated 2013).

The subject of this test is Utrophin A promoter linked to a luciferase reporter gene. Kind of test: Luciferase reporter assay (murine H2K cells). The settings on record: luciferase level relative to control, H2K/mdx/Utro A reporter cells, compound 10 μM final concentration; for activity at 10 µM: Mus musculus, H2K mdx, read-out: Activity. In kind it is cell-based. In short, it runs like this:
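Immortalized mdx mouse H2K myoblasts stably carrying a ~5 kb utrophin A promoter–luciferase construct, kept at 33° C, 10% CO2. After 24 hrs plating, compound added at 10 μM final for 48 hrs; luciferase light output read after in-situ lysis.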
For orientation: In a reporter assay the amount or activity of a reporter protein is the signal.

Regarding `COc1ccc2cc(-c3nc4cc(N)ccc4o3)ccc2c1` [Example 404, 2-(6-methoxynaphthalen-2-yl)benzo[d]oxazol-5-amine], the activity at 10 µM fell in the range of 201 to 300%. The same measure, in the same setting: next, `Nc1ccc2oc(-c3ccc4cc(Br)ccc4c3)nc2c1` [Example 405, 2-(6-bromonaphthalen-2-yl)benzo[d]oxazol-5-amine]: less than 200%; `CS(=O)(=O)c1ccc2nc(-c3ccc(Cl)cc3)sc2c1` [Example 406, 2-(4-chlorophenyl)-6-(methylsulfonyl)benzo[d]thiazole]: more than 401%; `CC(=O)Sc1ccc2oc(-c3ccc(Cl)cc3)nc2c1` [Example 407, S-2-(4-chlorophenyl)benzo[d]oxazol-5-yl ethanethioate]: less than 200%. For the compound `O=C(CC(F)(F)F)Nc1ccc2oc(-c3ccccc3)cc2c1` [Example 408, 2-phenyl-5-(3′,3′,3′-trifluoropropanamido)benzofuran], the activity at 10 µM is less than 200%. On to `Clc1ccc(-c2nc3c(ccc4ccccc43)o2)cc1` [Example 409, 2-(4-chlorophenyl)naphtho[1,2-d]oxazole], for which the activity at 10 µM was more than 401%. As to `CC(C)C(=O)Nc1ccc2oc(-c3cccc4ccccc34)nc2c1` [Example 410, N-(2-(naphthalen-1-yl)benzo[d]oxazol-5-yl)isobutyramide], the activity at 10 µM is less than 200%. The same measure, in the same setting: next, `CC(C)C(=O)Nc1ccc2oc(-c3ccc(-c4ccccc4)cc3)nc2c1` [Example 411, N-(2-(biphenyl-4-yl)benzo[d]oxazol-5-yl)isobutyramide]: less than 200%; `COc1ccc2cc(-c3nc4cc(NC(=O)C(C)C)ccc4o3)ccc2c1` [Example 412, N-(2-(6-methoxynaphthalen-2-yl)benzo[d]oxazol-5-yl)isobutyramide]: less than 200%. With `CC(C)C(=O)Nc1ccc2oc(-c3ccc4cc(Br)ccc4c3)nc2c1` [Example 413, N-(2-(6-bromonaphthalen-2-yl)benzo[d]oxazol-5-yl)isobutyramide], the activity at 10 µM is less than 200%. Still for that read-out and setting: next, `CC(C)C(=O)Nc1ccc2oc(-c3ccc(Cl)cc3)cc2c1` [Example 414, 2-(4′-chlorophenyl)-5-isobutyramido-benzofuran]: less than 200%; `CC(C)C(=O)Nc1ccc2oc(-c3cnc4ccccc4c3)nc2c1` [Example 415, N-(2-(quinolin-3-yl)benzo[d]oxazol-5-yl)isobutyramide]: more than 401%; `CC(C)C(=O)Nc1ccc2oc(-c3ccc4ccccc4n3)nc2c1` [Example 416, N-(2-(quinolin-2-yl)benzo[d]oxazol-5-yl)isobutyramide]: more than 401%.

Regarding `CCC(=O)c1ccc2oc(-c3ccc(Cl)cc3)nc2c1` [Example 417, 1-(2-(4-chlorophenyl)benzo[d]oxazol-5-yl)propan-1-one], the activity at 10 µM was more than 401%. On the same count and under the same terms, next, `CCS(=O)(=O)c1ccc2oc(-c3ccc(C)s3)nc2c1` [Example 418, 5-(ethylsulfonyl)-2-(5-methylthiophen-2-yl)benzo[d]oxazole]: more than 401%. Same read-out and setting: next, `CC(C)C(=O)Nc1ccc2oc(-c3ccco3)nc2c1` [Example 419, N-(2-(furan-2-yl)benzo[d]oxazol-5-yl)isobutyramide]: more than 401%.

In the case of `CC(=O)c1ccc2oc(-c3ccc(Cl)cc3)nc2c1` [Example 420, 1-(2-(4-chlorophenyl)benzo[d]oxazol-5-yl)ethanone], the activity at 10 µM was more than 401%.

In the case of `Nc1ccc2oc(-c3ccc(C4CCCCC4)cc3)nc2c1` [Example 421, 2-(4-cyclohexylphenyl)benzo[d]oxazol-5-amine], the activity at 10 µM was more than 401%. Take `CCS(=O)(=O)c1ccc2oc(-c3ccc4ccccc4n3)nc2c1` [Example 422, 5-(ethylsulfonyl)-2-(quinolin-2-yl)benzo[d]oxazole]: the activity at 10 µM is more than 401%.

On to `CCS(=O)(=O)c1ccc2oc(-c3cnc4ccccc4c3)nc2c1` [Example 423, 5-(ethylsulfonyl)-2-(quinolin-3-yl)benzo[d]oxazole], for which the activity at 10 µM was more than 401%. For `CCS(=O)(=O)c1ccc2oc(-c3ccc4cc(Br)ccc4c3)nc2c1` [Example 424, 2-(6-bromonaphthalen-2-yl)-5-(ethylsulfonyl)benzo[d]oxazole], the activity at 10 µM was less than 200%.

For `CCS(=O)(=O)c1ccc2oc(-c3ccc(C4CCCCC4)cc3)nc2c1` [Example 425, 2-(4-cyclohexylphenyl)-5-(ethylsulfonyl)benzo[d]oxazole], the activity at 10 µM is less than 200%. As to `CCS(=O)(=O)c1ccc2oc(-c3ccc(-c4ccccc4)cc3)nc2c1` [Example 426, 2-(biphenyl-4-yl)-5-(ethylsulfonyl)benzo[d]oxazole], the activity at 10 µM was less than 200%. On to `CCS(=O)(=O)c1ccc2oc(-c3cccc4ccccc34)nc2c1` [Example 427, 5-(ethylsulfonyl)-2-(naphthalen-1-yl)benzo[d]oxazole], for which the activity at 10 µM was less than 200%. In the case of `Nc1ccc(-c2nc3cc(Cl)c(Cl)cc3o2)c(O)c1` [Example 428, 5-amino-2-(5,6-dichlorobenzo[d]oxazol-2-yl)phenol], the activity at 10 µM fell in the range of 301 to 400%.

With `CCS(=O)(=O)c1ccc2oc(-c3cccs3)nc2c1` [Example 429, 5-(ethylsulfonyl)-2-(thiophen-2-yl)benzo[d]oxazole], the activity at 10 µM is 201 to 300%. Still for that read-out and setting: next, `CC(C)C(=O)Nc1ccc2oc(-c3ccc(C4CCCCC4)cc3)nc2c1` [Example 430, N-(2-(4-cyclohexylphenyl)benzo[d]oxazol-5-yl)isobutyramide]: less than 200%. Same read-out and setting: next, `CCS(=O)(=O)c1ccc2oc(-c3ccc4cc(F)ccc4c3)nc2c1` [Example 431, 5-(ethylsulfonyl)-2-(6-fluoronaphthalen-2-yl)benzo[d]oxazole]: less than 200%; `CCS(=O)(=O)c1ccc2oc(-c3ccc4sccc4c3)nc2c1` [Example 432, 2-(benzo[b]thiophen-5-yl)-5-(ethylsulfonyl)benzo[d]oxazole]: more than 401%; `CC(=O)Nc1ccc(-c2nc3cc(C)c(C)cc3o2)c(O)c1` [Example 433, N-(4-(5,6-dimethylbenzo[d]oxazol-2-yl)-3-hydroxyphenyl)acetamide]: 201 to 300%. Turning to `CC(C)S(=O)(=O)c1ccc2oc(-c3ccc(Cl)c(Cl)c3)nc2c1` [Example 434, 2-(3,4-dichlorophenyl)-5-(isopropylsulfonyl)benzo[d]oxazole], the activity at 10 µM was in the range of 301 to 400%. Same read-out and setting: next, `CCS(=O)(=O)c1ccc2oc(-c3sccc3C)nc2c1` [Example 436, 5-(ethylsulfonyl)-2-(3-methylthiophen-2-yl)benzo[d]oxazole]: 201 to 300%; `CCS(=O)(=O)c1ccc2oc(-c3ccc4ccccc4c3O)nc2c1` [Example 437, 2-(5-(ethylsulfonyl)benzo[d]oxazol-2-yl)naphthalen-1-ol]: more than 401%; `CCS(=O)(=O)c1ccc2oc(-c3ccc4c(c3)OC(F)(F)O4)nc2c1` [Example 438, 2-(2,2-difluorobenzo[d][1,3]dioxol-5-yl)-5-(ethylsulfonyl)benzo[d]oxazole]: less than 200%.

With `CCN(CC)S(=O)(=O)c1ccc2oc(-c3ccc(Cl)cc3)nc2c1` [Example 439, 2-(4′-chlorophenyl)-5-(N,N-diethylsulfonamidyl)-benzoxazole], the Activity result is recorded as “+ (Up to 200% relative to control)”. For `Nc1ccc(-c2nc3cc(Cl)c(Cl)cc3o2)cc1` [Example 440, 4-(5,6-dichlorobenzo[d]oxazol-2-yl)aniline], the activity at 10 µM is more than 401%. Same read-out and setting: next, `CCS(=O)(=O)c1ccc2oc(-c3ccc(C)o3)nc2c1` [Example 441, 5-(ethylsulfonyl)-2-(5-methylfuran-2-yl)benzo[d]oxazole]: 301 to 400%; `CC(C)C(=O)Nc1ccc(-c2nc3c(ccc4ccccc43)o2)cc1` [Example 442, N-(4-(naphtho[1,2-d]oxazol-2-yl)phenyl)isobutyramide]: 301 to 400%.

Take `CCS(=O)(=O)c1ccc2oc(-c3cc(C)cs3)nc2c1` [Example 443, 5-(ethylsulfonyl)-2-(4-methylthiophen-2-yl)benzo[d]oxazole]: the activity at 10 µM was more than 401%. For `CCS(=O)(=O)c1ccc2oc(-c3ccc4c(c3)CCCC4)nc2c1` [Example 444, 5-(ethylsulfonyl)-2-(5,6,7,8-tetrahydronaphthalen-2-yl)benzo[d]oxazole], the activity at 10 µM is 301 to 400%. The same measure, in the same setting: next, `CCS(=O)(=O)c1ccc2oc(-c3ccc4occc4c3)nc2c1` [Example 445, 2-(benzofuran-5-yl)-5-(ethylsulfonyl)benzo[d]oxazole]: more than 401%; `CC(O)c1ccc2oc(-c3ccc(Cl)cc3)nc2c1` (stereo not drawn) [Example 446, 2-(4′-chlorophenyl)-5-(1′-hydroxyethyl)-benzoxazole]: more than 401%.

Consider `CCS(=O)(=O)c1ccc2oc(-c3ccc(N)cc3O)nc2c1` [Example 447, 5-Amino-2-(5-(ethylsulfonyl)benzo[d]oxazol-2-yl)phenol], for which the activity at 10 µM lay within 201 to 300%. Same read-out and setting: next, `FC(F)(F)Oc1ccc2oc(-c3ccc4ccccc4c3)nc2c1` [Example 448, 2-(Naphthalen-2-yl)-5-(trifluoromethoxy)benzo[d]oxazole]: more than 401%; `O=C(O)c1ccc2oc(-c3ccc4ccccc4c3)nc2c1` [Example 449, 2-(Naphthalen-2-yl)benzo[d]oxazole-5-carboxylic acid]: more than 401%. Turning to `c1ccc2cc(-c3nc4ccccc4o3)ccc2c1` [Example 450, 2-(Naphthalen-2-yl)benzo[d]oxazole], the activity at 10 µM was more than 401%.

Consider `CC(C)(C)c1ccc2oc(-c3ccc4ccccc4c3)nc2c1` [Example 451, 5-tert-Butyl-2-(naphthalen-2-yl)benzo[d]oxazole], for which the activity at 10 µM is less than 200%.

Turning to `Fc1cc2nc(-c3ccc4ccccc4c3)oc2cc1F` [Example 452, 5,6-Difluoro-2-(naphthalen-2-yl)benzo[d]oxazole], the activity at 10 µM is more than 401%.
